{"source": "patent US7579489B2", "about": "“Processes for the preparation and purification of hydroxymethylfuraldehyde and derivatives” (Archer-Daniels-Midland Company, priority 2004, dated 2009)", "origin": "cited, not measured here"}
{"settings": "water/octanol; values taken from Hansch & Leo (1979) and Leo, Hansch & Elkins (1971)"}
{"molecule": "CCC(C)=O", "note": "[2-Butanone]", "Log P": 0.29}
{"molecule": "CCCCCC(C)=O", "note": "[2-Heptanone]", "Log P": 1.83}
{"molecule": "CCCC(C)=O", "note": "[2-Pentanone]", "Log P": 0.91}
{"molecule": "CCCCOC(C)=O", "note": "[Butyl acetate]", "Log P": 1.71}
{"molecule": "ClC(Cl)Cl", "note": "[Chloroform]", "Log P": 2.24}
{"molecule": "C1COCCO1", "note": "[Dioxane]", "Log P": "−0.27"}
{"molecule": "CCOC(C)=O", "note": "[Ethyl acetate]", "Log P": 0.66}
{"molecule": "NC=O", "note": "[Formamide]", "Log P": "−1.51"}
{"molecule": "CC(=O)CC(C)C", "note": "[Methyl isobutyl ketone]", "Log P": 1.32}
